Laboratory results published in ChEMBL document CHEMBL1129105, “Synthesis and biological evaluation of N-(1-aziridino)-6-fluoro-quinolone-3-carboxylic acids” (1996).
Values after ≈ are worked out from the molar mass of the structure shown.

Columns and labels:
[1] = test system: Escherichia coli; test: In vitro antibacterial activity of compound was measured against gram negative Escherichia coli 6R; assay type: functional
[2] = test system: Streptococcus pneumoniae; test: In vitro antibacterial activity of compound was measured against gram positive Streptococcus pneumoniae; assay type: functional
[3] = test system: Pseudomonas aeruginosa; test: In vitro antibacterial activity of compound was measured against gram negative Pseudomonas pyocyanea NCTC 10490; assay type: functional, pseudomona pyocyanea
[4] = test system: Streptococcus pyogenes; test: In vitro antibacterial activity of compound was measured against gram positive Streptococcus pyogenes A 115 ROBB; assay type: functional
[5] = test system: Streptococcus pyogenes; test: In vitro antibacterial activity of compound was measured against gram positive Streptococcus pyogenes A 118; assay type: functional
[6] = test system: Bacillus subtilis; test: In vitro antibacterial activity of compound was measured against gram positive Bacillus subtilis ATCC 6633; assay type: functional
[7] = test system: Mycobacterium tuberculosis; test: In vitro antibacterial activity of compound was measured against gram positive Mycobacterium tuberculosis H37Rv (human); assay type: functional
[8] = test system: Alcaligenes faecalis; test: In vitro antibacterial activity of compound was measured against gram negative Alcaligenes faecalis 140001; assay type: functional
[9] = test system: Proteus inconstans; test: In vitro antibacterial activity of compound was measured against gram negative Proteus inconstans NCTC 8055; assay type: functional; conditions: Providencia alcalifaciens
[10] = test system: Staphylococcus aureus; test: In vitro antibacterial activity of compound was measured against gram positive Staphylococcus aureus SMITH; assay type: functional
[11] = test system: Clostridium perfringens; test: In vitro antibacterial activity of compound was measured against gram positive Clostridium perfringens 70500; assay type: functional
[12] = test system: Shigella sonnei; test: In vitro antibacterial activity of compound was measured against gram negative Shigella sonnei; assay type: functional
[13] = test system: Escherichia coli; test: In vitro antibacterial activity of compound was measured against gram negative Escherichia coli K12; assay type: functional
[14] = test system: Proteus vulgaris; test: In vitro antibacterial activity of compound was measured against gram negative Proteus vulgaris XL; assay type: functional
[15] = test system: Salmonella typhimurium; test: In vitro antibacterial activity of compound was measured against gram negative Salmonella Typhimurium 51; assay type: functional, Salmonella enterica subsp. enterica serovar Typhimurium; conditions: Salmonella enterica
[16] = test system: Mycobacterium tuberculosis; test: In vitro antibacterial activity of compound was measured against gram positive Mycobacterium tuberculosis Ravenel(bovin); assay type: functional
[17] = test system: Enterococcus faecalis; test: In vitro antibacterial activity of compound was measured against gram positive Streptococcus faecalis; assay type: functional
[18] = test system: Staphylococcus aureus; test: In vitro antibacterial activity of compound was measured against gram positive Staphylococcus aureus 1110 pen.rez.; assay type: functional
[19] = test system: Bordetella bronchiseptica; test: In vitro antibacterial activity of compound was measured against gram negative Bordetella bronchiseptica ATCC 4617; assay type: functional
[20] = test system: Klebsiella pneumoniae; test: In vitro antibacterial activity of compound was measured against gram negative Klebsiella pneumoniae ATCC 10031; assay type: functional
[21] = test system: Bacteroides fragilis; test: In vitro antibacterial activity of compound was measured against gram negative Bacteroides fragilis ATCC 25285; assay type: functional
[22] = test system: Serratia marcescens; test: In vitro antibacterial activity of compound was measured against gram negative Serratia marcescens; assay type: functional
[23] = test system: Acinetobacter calcoaceticus subsp. anitratus; test: In vitro antibacterial activity of compound was measured against gram negative Acinetobacter anitratus 150001; assay type: functional

| SMILES | MIC [1] | MIC [2] | MIC [3] | MIC [4] | MIC [5] | MIC [6] | MIC [7] | MIC [8] | MIC [9] | MIC [10] | MIC [11] | MIC [12] | MIC [13] | MIC [14] | MIC [15] | MIC [16] | MIC [17] | MIC [18] | MIC [19] | MIC [20] | also measured |
| --- | --- | --- | --- | --- | --- | --- | --- | --- | --- | --- | --- | --- | --- | --- | --- | --- | --- | --- | --- | --- | --- |
| CN1CCN(c2c(F)cc3c(=O)c(C(=O)O)cn(N4CC4c4ccccc4)c3c2F)CC1 (stereo not given) | > 100 µg/mL | 25 µg/mL (≈ 56.8 µM) | > 100 µg/mL | 50 µg/mL (≈ 114 µM) | > 100 µg/mL | 100 µg/mL (≈ 227 µM) | 100 µg/mL (≈ 227 µM) | > 100 µg/mL | 50 µg/mL (≈ 114 µM) | 100 µg/mL (≈ 227 µM) | 100 µg/mL (≈ 227 µM) | 6.2 µg/mL (≈ 14.1 µM) | 25 µg/mL (≈ 56.8 µM) | 25 µg/mL (≈ 56.8 µM) | 25 µg/mL (≈ 56.8 µM) | 50 µg/mL (≈ 114 µM) | > 100 µg/mL | 100 µg/mL (≈ 227 µM) | 100 µg/mL (≈ 227 µM) | 12.5 µg/mL (≈ 28.4 µM) | MIC [21]: > 100 µg/mL; MIC [22]: 50 µg/mL (≈ 114 µM); MIC [23]: > 100 µg/mL |
| CN1CCN(c2c(F)cc3c(=O)c(C(=O)O)cn(N4CC4c4ccc(F)cc4)c3c2F)CC1 (stereo not given) | > 100 µg/mL | 50 µg/mL (≈ 109 µM) | > 100 µg/mL | 100 µg/mL (≈ 218 µM) | > 100 µg/mL | > 100 µg/mL | 100 µg/mL (≈ 218 µM) | > 100 µg/mL | 25 µg/mL (≈ 54.5 µM) | > 100 µg/mL | 100 µg/mL (≈ 218 µM) | 12.5 µg/mL (≈ 27.3 µM) | 12.5 µg/mL (≈ 27.3 µM) | 25 µg/mL (≈ 54.5 µM) | 25 µg/mL (≈ 54.5 µM) | 50 µg/mL (≈ 109 µM) | > 100 µg/mL | > 100 µg/mL | > 100 µg/mL | 12.5 µg/mL (≈ 27.3 µM) | MIC [21]: > 100 µg/mL; MIC [22]: 25 µg/mL (≈ 54.5 µM); MIC [23]: > 100 µg/mL |
| CN1CCN(c2cc3c(cc2F)c(=O)c(C(=O)O)cn3N2CC2c2ccccn2)CC1 (stereo not given) | 100 µg/mL (≈ 236 µM) | 25 µg/mL (≈ 59 µM) | 100 µg/mL (≈ 236 µM) | 50 µg/mL (≈ 118 µM) | 50 µg/mL (≈ 118 µM) | 50 µg/mL (≈ 118 µM) | 50 µg/mL (≈ 118 µM) | > 100 µg/mL | > 100 µg/mL | 50 µg/mL (≈ 118 µM) | 50 µg/mL (≈ 118 µM) | 12.5 µg/mL (≈ 29.5 µM) | 100 µg/mL (≈ 236 µM) | > 100 µg/mL | 100 µg/mL (≈ 236 µM) | 25 µg/mL (≈ 59 µM) | 100 µg/mL (≈ 236 µM) | 100 µg/mL (≈ 236 µM) | 100 µg/mL (≈ 236 µM) | 50 µg/mL (≈ 118 µM) | MIC [21]: 50 µg/mL (≈ 118 µM); MIC [22]: 100 µg/mL (≈ 236 µM); MIC [23]: > 100 µg/mL |
| CN1CCN(c2cc3c(cc2F)c(=O)c(C(=O)O)cn3N2CC2c2ccc(F)cc2)CC1 (stereo not given) | 100 µg/mL (≈ 227 µM) | 5 µg/mL (≈ 11.4 µM) | 100 µg/mL (≈ 227 µM) | 10 µg/mL (≈ 22.7 µM) | 25 µg/mL (≈ 56.8 µM) | 10 µg/mL (≈ 22.7 µM) | 12.5 µg/mL (≈ 28.4 µM) | 100 µg/mL (≈ 227 µM) | 100 µg/mL (≈ 227 µM) | 25 µg/mL (≈ 56.8 µM) | 6.2 µg/mL (≈ 14.1 µM) | 25 µg/mL (≈ 56.8 µM) | 50 µg/mL (≈ 114 µM) | 100 µg/mL (≈ 227 µM) | 50 µg/mL (≈ 114 µM) | 6.2 µg/mL (≈ 14.1 µM) | 25 µg/mL (≈ 56.8 µM) | 25 µg/mL (≈ 56.8 µM) | 12.5 µg/mL (≈ 28.4 µM) | 6.2 µg/mL (≈ 14.1 µM) | MIC [21]: 25 µg/mL (≈ 56.8 µM); MIC [22]: 100 µg/mL (≈ 227 µM); MIC [23]: 50 µg/mL (≈ 114 µM) |
| CN1CCN(c2cc3c(cc2F)c(=O)c(C(=O)O)cn3N2C3CCCCC32)CC1 (stereo not given) | 100 µg/mL (≈ 250 µM) | 100 µg/mL (≈ 250 µM) | 100 µg/mL (≈ 250 µM) | 100 µg/mL (≈ 250 µM) | 100 µg/mL (≈ 250 µM) | 3.1 µg/mL (≈ 7.74 µM) | 6.2 µg/mL (≈ 15.5 µM) | 100 µg/mL (≈ 250 µM) | 100 µg/mL (≈ 250 µM) | 50 µg/mL (≈ 125 µM) | 100 µg/mL (≈ 250 µM) | 12.5 µg/mL (≈ 31.2 µM) | 50 µg/mL (≈ 125 µM) | 50 µg/mL (≈ 125 µM) | 25 µg/mL (≈ 62.4 µM) | 3.1 µg/mL (≈ 7.74 µM) | > 100 µg/mL | 50 µg/mL (≈ 125 µM) | 25 µg/mL (≈ 62.4 µM) | 0.8 µg/mL (≈ 2 µM) | MIC [21]: 25 µg/mL (≈ 62.4 µM); MIC [22]: 50 µg/mL (≈ 125 µM); MIC [23]: 12.5 µg/mL (≈ 31.2 µM) |
